Measured values from PMC3907537, “Evaluation of the Endothelin Receptor Antagonists Ambrisentan, Bosentan, Macitentan, and Sitaxsentan as Hepatobiliary Transporter Inhibitors and Substrates in Sandwich-Cultured Human Hepatocytes” (PLoS ONE, 2014).

Tests used:
[1] = system: sandwich-cultured human hepatocytes; experiment: ERA effect on hepatobiliary disposition of d8-taurocholate (B-CLEAR sandwich culture); format: cell-based; settings: n = 3 donors; for d8-TCA cellular accumulation (% control) / d8-TCA total accumulation (% control): 2.5 µM d8-TCA, 10 min
Description: Sandwich-cultured human hepatocytes were obtained from Celsis/IVT (Baltimore, MD) or Life Technologies (Durham, NC). Donors were male (n = 3) and female (n = 1) between the ages of 31 and 62 years old. Hepatic uptake, biliary excretion and in vitro biliary clearance (Clb) were determined using the B-CLEAR® hepatocyte sandwich culture model as described by Liu et al., 1999 [34]. In this system, hepatocytes form functional bile canalicular networks while maintaining the expression and function of key uptake and efflux transporters. The canalicular system of bile pockets remains separate from the cellular culture media due to tight junctions between cells. The integrity of these tight junctions is maintained in the presence of calcium (Plus (+) buffer) while in the absence of calcium (Minus (−) buffer), these tight junctions open and release the contents of the canalicular network into the media.
A dose solution containing 2.5 µM d8-taurocholic acid (d8-TCA) was prepared in Plus (+) Buffer. Co-incubation solutions were prepared by combining d8-TCA dose solution and ERA or rifamycin-SV. Hepatocytes were washed and then conditioned for 10 min in warm Plus (+) or Minus (−) buffer with and without ERA or rifamycin-SV. Pre-incubation solutions were then removed and replaced with dose or co-incubation solutions and incubated for 10 min at 37°C. Following this 10 minute incubation, the dose or co-incubation solutions were removed and the cells were then washed three times with ice-cold Plus (+) buffer. The plates were then frozen at −80°C until processed for bioanalysis.
Study samples were stored in their original 24-well plates at −80°C until prepared for analysis. A volume of 500 µL of cell lysis solution (70∶30 methanol:water) containing 25 nM internal standard was added to each well and mixed for 20 min of mixing. The volume in each well was then transferred to a 96-well filter plate stacked on a Greiner deep well collection plate. The filter plate/collection plate was then centrifuged at 2000 rcf for 5 min. The filtrate was then evaporated to dryness under nitrogen. Samples were reconstituted in 200 µL of sample diluent (60∶40 methanol:10 mM ammonium acetate, native pH), sealed, and placed on a plate shaker for 15 min. These samples were then transferred to a Whatman 96-well 0.45 µm PVDF filter plate stacked on a Costar 3956 plate (HPLC injection plate), centrifuged at 2000 rcf for 2–3 min, and sealed with a silicon cap mat prior to LC-MS/MS analysis. d8-TCA standard spiking solutions were prepared in 50∶50 methanol:water. For a given lysate standard or control, 10 µL was added to each well of a previously frozen analytical plate. Standards representing 0.5–100 pmoles/well and QC’s at the LLQ and ULQ were prepared. These lysate standards and controls were then further processed as described above for unknown study samples. Prepared samples were filtered and analyzed by LC-MS/MS using a Shimadzu binary HPLC system (Columbia, MD) and tandem mass spectrometry using Thermo Electron TSQ® Quantum Discovery MAX™ (Waltham, MA) with an Ion Max ESI source operating in negative ion electrospray ionization mode. Results for unknowns and QCs were calculated using a standard curve based on an internal standard processing method.
Data calculations were performed using Microsoft Excel, 2010 with all values reported as mean ± standard deviation (SD). Statistical comparisons across ERA treatments were performed using analysis of variance (ANOVA) with Fisher’s PLSD post hoc analysis (Statview 5.0, SAS Institute, Cary NC); statistical significance was considered to be P<0.05. All mass values were normalized to mg protein by taking the average protein mass in the taurocholate plate determined using a BCA protein assay (Pierce Biotechnology, Rockford, IL). Cellular accumulation determined in Minus (−) buffer (Accumulation Minus (−) Buffer) represents the total mass of analyte inside the hepatocyte at the end of the incubation time period. […]

[2] = biological target: T1, Pgp (Homo sapiens, UniProt P08183); experiment: Pgp inhibition, Calcein AM in MDCKII cells; format: cell-based; settings: mean ± SD of 3 independent studies in duplicate, tested 0.14–100 µM
T1 construct: host or cells: MDCKII
T1 sequence (P08183 whole entry): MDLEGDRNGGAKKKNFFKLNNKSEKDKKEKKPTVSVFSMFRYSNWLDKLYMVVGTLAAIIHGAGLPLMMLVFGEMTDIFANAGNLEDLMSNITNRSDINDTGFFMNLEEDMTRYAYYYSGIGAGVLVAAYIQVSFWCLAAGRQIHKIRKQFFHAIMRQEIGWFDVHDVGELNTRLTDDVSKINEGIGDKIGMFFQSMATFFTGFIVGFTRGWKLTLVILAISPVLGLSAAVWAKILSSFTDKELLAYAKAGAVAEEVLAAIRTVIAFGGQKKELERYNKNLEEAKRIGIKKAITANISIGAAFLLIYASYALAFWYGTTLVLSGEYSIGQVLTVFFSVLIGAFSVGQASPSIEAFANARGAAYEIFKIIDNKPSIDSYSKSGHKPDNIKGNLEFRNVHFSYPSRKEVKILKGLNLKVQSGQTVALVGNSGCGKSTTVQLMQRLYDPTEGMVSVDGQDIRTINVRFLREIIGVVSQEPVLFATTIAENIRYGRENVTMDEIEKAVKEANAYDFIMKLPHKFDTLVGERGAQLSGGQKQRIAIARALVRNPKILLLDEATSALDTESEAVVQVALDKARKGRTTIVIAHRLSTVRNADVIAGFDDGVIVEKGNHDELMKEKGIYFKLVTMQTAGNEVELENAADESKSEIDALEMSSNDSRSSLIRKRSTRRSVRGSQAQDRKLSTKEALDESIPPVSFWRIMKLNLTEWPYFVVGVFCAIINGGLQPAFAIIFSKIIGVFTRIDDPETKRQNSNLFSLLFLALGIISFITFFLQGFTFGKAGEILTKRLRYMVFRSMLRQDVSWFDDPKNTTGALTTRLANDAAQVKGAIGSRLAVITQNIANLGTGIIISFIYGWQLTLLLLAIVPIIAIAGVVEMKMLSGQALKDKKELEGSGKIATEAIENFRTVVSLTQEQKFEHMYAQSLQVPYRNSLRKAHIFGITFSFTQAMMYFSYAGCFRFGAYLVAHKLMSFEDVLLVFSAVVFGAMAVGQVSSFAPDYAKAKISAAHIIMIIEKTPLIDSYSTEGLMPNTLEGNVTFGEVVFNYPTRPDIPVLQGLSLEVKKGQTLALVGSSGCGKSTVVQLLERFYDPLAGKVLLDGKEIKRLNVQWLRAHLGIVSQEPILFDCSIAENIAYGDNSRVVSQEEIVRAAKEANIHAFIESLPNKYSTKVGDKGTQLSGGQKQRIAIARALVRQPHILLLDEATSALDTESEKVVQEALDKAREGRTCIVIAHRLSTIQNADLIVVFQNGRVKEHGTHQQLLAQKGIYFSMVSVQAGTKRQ
Text: Chinese Hamster Ovary (CHO) cells were obtained from Professor B. Stieger’s laboratory at University of Zurich, Zurich, Switzerland. Madin-Darby Canine Kidney strain II (MDCKII) cells were obtained from Nederlands Kanker Instituut (NKI), Amsterdam, Netherlands. NTCP-CHO cells, BSEP and MRP2 membrane vesicles were developed and validated at Solvo Biotechnology, Budaors, Hungary.
MDCKII cells were maintained in DMEM with sodium pyruvate, Glutmax, 1% Penicillin/Streptomycin and 10% FBS in an incubator set at 37°C, 90% humidity and 5% CO2. MDCKII cells were seeded in 96-well black cell culture plates with clear bottoms at a density of 5×10^4 cells/well for Pgp and 2×10^4 cells/well for BCRP and grown to confluence. For the Pgp assay, test compounds were serially diluted in DMSO and then added into in cell culture medium (without FBS) containing 10 µM Calcein AM and incubated for 1 h. Following the removal of media containing Calcein AM and test compound, cells were washed five times with […] phosphate buffered saline containing magnesium and calcium (PBS). Wells were analyzed for Calcein AM fluorescence at an excitation of 494 nm and an emission of 517 nm. For the BCRP assay, test compounds were serially diluted DMSO and then spiked in cell culture medium (without FBS) containing 1 µM pheophorbide a (PhA) and incubated for 18 hours with MDCKII-ABCG2 cells. Following the removal of media containing PhA and test compound, cells were then washed five times with PBS. Wells were analyzed for PhA fluorescence at an excitation of 415 nm and an emission of 675 nm.
All assays were performed in duplicate. IC50 was defined as the test article concentration needed to inhibit the maximal transporter specific accumulation by 50%. IC50 values were calculated using non-linear fitting of % inhibition versus concentration to a sigmoidal curve with a variable Hill Coefficient using GraphPad Prism 5 (GraphPad Software Inc., San Diego, CA).

Structure (SMILES)	d8-TCA cellular accumulation (% control) ([1]; 33 µM ERA) [%]	d8-TCA cellular accumulation (% control) ([1]; 100 µM ERA) [%]	IC50 [2] [µM]	d8-TCA cellular accumulation (% control) ([1]; 11 µM ERA) [%]	d8-TCA total accumulation (% control) ([1]; 11 µM ERA) [%]	d8-TCA in vitro biliary clearance (Clb), percent of control ([1]; 11 µM ERA) [%]	d8-TCA total accumulation (% control) ([1]; 33 µM ERA) [%]	d8-TCA in vitro biliary clearance (Clb), percent of control ([1]; 33 µM ERA) [%]	d8-TCA total accumulation (% control) ([1]; 100 µM ERA) [%]	d8-TCA biliary efflux (BEI), percent of control ([1]; 100 µM ERA) [%]	d8-TCA in vitro biliary clearance (Clb), percent of control ([1]; 100 µM ERA) [%]	d8-TCA biliary efflux (BEI), percent of control ([1]; 33 µM ERA) [%]
COC(c1ccccc1)(c1ccccc1)[C@H](Oc1nc(C)cc(C)n1)C(=O)O [ambrisentan]	71	52	> 100									
COc1ccccc1Oc1c(NS(=O)(=O)c2ccc(C(C)(C)C)cc2)nc(-c2ncccn2)nc1OCCO [bosentan]		44.5±3.6	> 100	66.5±5.3	68.6±1.5	69.2±0.1	62.6±6.6	58.7±11.4	31.7±5.9	85.2±13.9	27.0±9.3	
CCCNS(=O)(=O)Nc1ncnc(OCCOc2ncc(Br)cn2)c1-c1ccc(Br)cc1 [macitentan]	42.1±4.5	6.2±0.5	64 ± 15				23.6±0.5	17.2±2.3	4.8±0.2		4.3±0.5	72.9±8.0
